{"source": "patent US9161981B2", "about": "(LG LIFE SCIENCES, LTD., priority 2010, dated 2015)", "conditions": "phenol between MCT oil phase and saline phase; oil and saline 19:1; HPLC", "source_text": "The partition coefficient P is a value calculated by dividing a concentration of preservative in the oil phase by a concentration of preservative in the water phase."}
{"smiles": "Oc1ccccc1", "note": "[phenol]", "values": [{"measurement": "logP", "value": 1.1}]}
